Experimental data published in PMC12543283, “TastepepAI: An artificial intelligence platform for taste peptide de novo design” (PLOS Computational Biology, 2025).
Several values for one entry are separate records, joined by “and”; a condition that tells them apart may be missing. Equal entries are not always repeated. Ends that are not written are not given here.

How the values were obtained:
[1] = Electronic tongue analysis (Taste-Sensing System SA 402B); set-up: unit not given here; conditions: reference solution 30 mM KCl + 0.3 mM tartaric acid as baseline, first measurement excluded; for Umami: sensor AAE; for Umami / Bitter / Sweet: detection threshold 0, room temperature; for Umami / Bitter / Sour / Salty: four replicates; for Sour: detection threshold -13, room temperature; for Salty: detection threshold -6, room temperature; for Sweet: measured five times
Method: Taste characteristics were analyzed using the electronic tongue system E-tongue (Taste-Sensing System SA 402B, Intelligent Sensor Technology Co. Ltd., Japan). The system was equipped with five specific sensor probes for detecting sourness (CA0), saltiness (CT0), bitterness (C00), sweetness (GL1), and umami (AAE). Samples were tested at concentrations of 0.1 mg/mL and 1.0 mg/mL. Prior to experiments, sensors were activated by immersion in a reference solution (30 mM KCl and 0.3 mM tartaric acid) for 24 h. A 30 min self-diagnostic procedure was performed before each measurement to ensure data accuracy. The reference solution served both as a cleaning solution and standard solution for taste signal calibration. According to the manufacturer’s instructions, using the reference solution as baseline, the detection thresholds were set at −13 for sourness, −6 for saltiness, and 0 for other taste modalities. Two cleaning solutions were employed for electrode maintenance: (1) 30% ethanol solution containing 100 mM HCl for negative charge reference electrodes, and (2) 30% ethanol solution containing 100 mM KCl and 10 mM KOH for positive charge reference electrodes. All taste measurements were performed at room temperature with four replicates, except for sweetness which was measured five times. The first measurement data were excluded from analysis.

[2] = system: human bronchial epithelial cells (BEAS-2B)
[3] = system: human umbilical vein endothelial cells (HUVEC)
[4] = system: human embryonic kidney cells (HEK293T)
[5] = system: human pancreatic ductal epithelial cells (HPNE)

Substance | Umami ([1]; peptide 0.1 mg/mL) | Umami ([1]; peptide 1 mg/mL) | Bitter ([1]; sensor C00, peptide 0.1 mg/mL) | Bitter ([1]; sensor C00, peptide 1 mg/mL) | Sour ([1]; sensor CA0, peptide 0.1 mg/mL) | Sour ([1]; sensor CA0, peptide 1 mg/mL) | Salty ([1]; sensor CT0, peptide 0.1 mg/mL) | Salty ([1]; sensor CT0, peptide 1 mg/mL) | Sweet ([1]; sensor GL1, peptide 0.1 mg/mL) | Sweet ([1]; sensor GL1, peptide 1 mg/mL) | Average cell viability, BEAS-2B [2] | Cell viability, BEAS-2B, Data1 [2] | Cell viability, BEAS-2B, Data2 [2] | Cell viability, BEAS-2B, Data3 [2] | Average cell viability, HUVEC [3] | Cell viability, HUVEC, Data1 [3] | Cell viability, HUVEC, Data2 [3] | Cell viability, HUVEC, Data3 [3] | Average cell viability, HEK293T [4] | Cell viability, HEK293T, Data1 [4] | further results
EKGVQ [TaPep64] | 1.91 | -4.02 | 7.39 | 3.04 | -4.25 | 9.90 | -21.79 | 10.50 | 4.85 | -4.54 | 103.99 | 103.09 | 103.59 | 105.28 | 104.98 | 101.54 | 110.56 | 102.82 | 103.19 | 103.53 | Cell viability, HEK293T, Data2 [4]: 102.87; Cell viability, HEK293T, Data3 [4]: 103.15; Average cell viability, HPNE [5]: 98.34; Cell viability, HPNE, Data1 [5]: 89.85; Cell viability, HPNE, Data2 [5]: 95.04; Cell viability, HPNE, Data3 [5]: 110.12
SVLEFS [TaPep52] | 2.84 | -2.08 | 7.49 | 4.10 | -6.24 | 5.72 | -20.56 | 3.13 | 9.54 | -1.51 | 105.65 | 105.38 | 103.19 | 108.37 | 102.10 | 102.10 | 88.93 | 115.27 | 99.31 | 102.87 | Cell viability, HEK293T, Data2 [4]: 97.95; Cell viability, HEK293T, Data3 [4]: 97.10; Average cell viability, HPNE [5]: 109.12; Cell viability, HPNE, Data1 [5]: 112.31; Cell viability, HPNE, Data2 [5]: 112.11; Cell viability, HPNE, Data3 [5]: 102.93
NNDDEES [TaPep50] | 2.11 | -3.90 | 7.18 | 4.27 | -4.45 | 9.63 | -22.53 | 3.54 | 7.42 | -3.07 | 104.39 | 104.29 | 103.89 | 104.99 | 105.59 | 101.94 | 108.73 | 106.09 | 101.39 | 105.62 | Cell viability, HEK293T, Data2 [4]: 98.99; Cell viability, HEK293T, Data3 [4]: 99.56; Average cell viability, HPNE [5]: 98.30; Cell viability, HPNE, Data1 [5]: 106.02; Cell viability, HPNE, Data2 [5]: 107.52; Cell viability, HPNE, Data3 [5]: 81.36
KGYEAV [TaPep5] | 1.93 | -5.17 | 7.90 | bitterness suppression and -0.10 | -4.04 | 12.61 | -18.14 | 14.26 | 6.12 | -5.63 | 113.59 | 105.38 | 117.75 | 117.65 | 105.38 | 115.43 | 105.06 | 95.64 | 97.32 | 101.17 | Cell viability, HEK293T, Data2 [4]: 95.30; Cell viability, HEK293T, Data3 [4]: 95.49; Average cell viability, HPNE [5]: 113.38; Cell viability, HPNE, Data1 [5]: 117.83; Cell viability, HPNE, Data2 [5]: 109.17; Cell viability, HPNE, Data3 [5]: 113.13
DQEPVE [TaPep44] | 0.51 | -6.35 | 7.74 | 3.13 | -0.62 | 14.96 | -19.30 | 10.03 | 3.94 | -11.10 | 101.53 | 108.18 | 97.51 | 98.90 | 109.31 | 108.41 | 112.00 | 107.53 | 102.43 | 105.71 | Cell viability, HEK293T, Data2 [4]: 98.14; Cell viability, HEK293T, Data3 [4]: 103.44; Average cell viability, HPNE [5]: 105.06; Cell viability, HPNE, Data1 [5]: 112.51; Cell viability, HPNE, Data2 [5]: 118.30; Cell viability, HPNE, Data3 [5]: 84.36
